Data taken from US5795907A, “Gastin and CCK receptor ligands” (James Black Foundation Limited, priority 1994, dated 1998).

Experiments:
CCKA = target: T1, CCKA (Cavia porcellus, UniProt Q63931); assay: CCKA radioligand binding assay in guinea-pig pancreas membranes ([125I]-CCK8(S)); conditions: PD134,308 present, 150 minutes at 21±3°; for Ki: read-out: CCKA pKi (converted)
T1 construct: The pancreatata were homogenised in 40 ml ice-cold HEPES buffer using a polytron; from tissue; host or cells: pancreas membranes of male Dunkin Hartley guinea-pigs
T1 sequence (Q63931 1-430): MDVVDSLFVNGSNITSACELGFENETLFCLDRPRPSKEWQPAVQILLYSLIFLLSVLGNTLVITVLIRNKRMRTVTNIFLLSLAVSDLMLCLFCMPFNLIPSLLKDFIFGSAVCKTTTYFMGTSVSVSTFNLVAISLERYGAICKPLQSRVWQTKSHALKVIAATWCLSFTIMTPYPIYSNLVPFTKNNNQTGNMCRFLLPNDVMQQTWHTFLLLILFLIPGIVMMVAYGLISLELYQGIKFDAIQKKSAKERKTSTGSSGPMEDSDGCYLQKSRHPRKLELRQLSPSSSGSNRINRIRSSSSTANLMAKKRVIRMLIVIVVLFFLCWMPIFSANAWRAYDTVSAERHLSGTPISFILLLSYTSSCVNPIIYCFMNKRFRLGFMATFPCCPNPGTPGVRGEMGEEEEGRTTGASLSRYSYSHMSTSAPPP
Protocol: The compounds of the examples were also tested in a CCKA as follows:
The pancreatata were removed from male guinea-pigs (200-300 g; Dunkin Hartley) and placed in ice-cold HEPES buffer (pH 7.2 @ 21 ±3). The pancreatata were homogenised in 40 ml ice-cold HEPES buffer using a polytron (Brinkmann, PT10, setting 10) 4×1 second. The homogenate was centrifuged at 39,800 g for 15 min at 4°. The supernatant was discarded and the pellet re-suspended using a Teflon-in-glass homogeniser in 20 volumes of fresh buffer and re-centrifuged as above.
The final pellet was re-suspended using a Teflon-in-glass homogeniser to a tissue concentration of 1 mg.ml^-1 (original wet weight), and filtered through 500 μm pore-size Nytex mesh.
The membranes (400 μl; containing 0.375 μM PD134,308) are incubated for 150 minutes at 21±3° in a final volume of 0.5 ml with HEPES buffer containing [^125 I]-CCK8 (S) (50 μl; […]) and competing compound. Total and non-specific binding of [^125 I]-CCK8 (S) are defined using 50 μl of buffer and 50 μl of 100 nM L-364,718 respectively. The assay is terminated by rapid filtration through pre-soaked Whatman GF/B filters using a Brandell Cell Harvester. The filters were washed (3×3 ml) with ice-cold 50 mM Tris HCl (pH 7.4 at 4°) and bound radioactivity is determined by counting (1 min) in a gamma counter.

CCKB receptor = target: T2, CCKB receptor (Mus musculus, UniProt P56481); assay: CCKB receptor radioligand binding assay in mouse cortical membranes ([125I]-CCK8S); conditions: [125I]-CCK8S 200 pM, 150 min at 21±3°; for Ki: read-out: CCKB pKi (converted)
T2 construct: The cortex was dissected, weighed and homogenised in 40ml ice-cold buffer; tissue Charles River (supplier of the CD1 mice); host or cells: cerebral cortex membranes of male CD1 mice
T2 sequence (P56481 1-453): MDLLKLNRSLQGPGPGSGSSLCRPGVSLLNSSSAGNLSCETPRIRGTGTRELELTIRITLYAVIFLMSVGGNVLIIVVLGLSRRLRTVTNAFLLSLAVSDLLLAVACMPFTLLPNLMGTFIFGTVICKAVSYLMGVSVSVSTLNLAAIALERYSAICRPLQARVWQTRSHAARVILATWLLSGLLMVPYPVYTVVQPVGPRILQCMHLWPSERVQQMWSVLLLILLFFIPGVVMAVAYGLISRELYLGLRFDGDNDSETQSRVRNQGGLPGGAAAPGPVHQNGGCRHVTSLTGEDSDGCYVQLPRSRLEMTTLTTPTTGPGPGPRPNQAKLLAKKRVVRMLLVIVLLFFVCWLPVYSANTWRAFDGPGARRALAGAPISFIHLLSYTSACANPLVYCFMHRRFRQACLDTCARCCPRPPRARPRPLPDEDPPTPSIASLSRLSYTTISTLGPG
Protocol: The compounds of the examples were tested for binding at the CCKB receptor in mouse cortical membranes by means of a radioligand binding assay. The procedure was as follows:
The whole brains from male mice (CD1 22-25 g; Charles River) were removed and placed in ice-cold buffer (pH7.2 @ 21±3°) of the following composition (mM); 10 HEPES, 130 NaCl, 4.7 KCl, 5 MgCl2, 1 EDTA and containing 0.25g.^-1 bacitracin. The cortex was dissected, weighed and homogenised in 40ml ice-cold buffer using a Teflon-in-glass homogeniser. The homogenate was centrifuged at 39,800g for 20 min at 4°, the supernatant discarded and the pellet resuspended by homogenisation in fresh buffer. The homogenate was recentrifuged (39,800 g; 20 min @ 4°) and the final pellet was resuspended in HEPES buffer to give a tissue concentration of 2 mg.ml^-1 (original wet weight).
The membranes ([…]) were incubated for 150 min at 21±3° in a final volume of 0.5 ml with HEPES buffer containing [^125 I]-CCK8S (0.05 ml; 200 pM NEN 2200 Ci.mmol^-1) and competing compound. Total and non-specific binding of [^125 I]-CCK8S were defined using 0.05 ml of buffer and 0.05 ml of […] L-365,260, respectively. The assay was terminated by rapid filtration through pre-soaked Whatman GF/B filters using a Brandell Cell harvester. The filters were washed (3×3 ml) with ice-cold 50 mM Tris-HCl (pH7.4 @ 4° C.) and bound radioactivity determined by counting (1 min.) in a gamma-counter.

Ki (CCKA) [nM] | Ki (CCKB receptor) [nM] | CCKA pKi (CCKA) | CCKB pKi (CCKB receptor) | Molecule
3980 | 25.1 |  |  | O=C(O)c1cc(NC(=O)[C@H](Cc2ccccc2)NC(=O)c2cc3[nH]cnc3cc2C(=O)NCc2ccc3ccccc3c2)cc(C(=O)O)c1 [Example 130, 5-(1S-(3,5-dicarboxyphenylaminocarbonyl)-2-phenylethylaminocarbonyl)-6-(2-naphthalenenemethylaminocarbonyl)-benzimidazole]
 |  | 5.6 | 6.2 | O=C(NCC12CC3CC(CC(C3)C1)C2)c1cc2nc[nH]c2cc1C(=O)N[C@@H](Cc1ccccc1)C(=O)Nc1cc(CO)cc(CO)c1 [Example 119, 5-(1S-(3,5-dihydroxymethylphenylaminocarbonyl)-2-phenylethylaminocarbonyl)-6-(1-adamantanemethylaminocarbonyl)-benzimidazole]
1580 | 794 |  |  | NC(=O)c1cc(NC(=O)[C@H](Cc2ccccc2)NC(=O)c2cc3[nH]cnc3cc2C(=O)NCC23CC4CC(CC(C4)C2)C3)cc(C(N)=O)c1 [Example 117, 5-(1S-(3,5-diaminocarbonylphenylaminocarbonyl)-2-phenylethylaminocarbonyl)-6-(1-adamantanemethylaminocarbonyl)-benzimidazole]
 |  |  | 8.1 | CC(=O)NS(=O)(=O)c1cccc(NC(=O)[C@H](Cc2ccccc2)NC(=O)c2cc3cc[nH]c3cc2C(=O)NCC23CC4CC(CC(C4)C2)C3)c1 [Example 138, 5-(1S-(3-acetylaminosulphonylphenylaminocarbonyl)-2-phenylethylaminocarbonyl)-6-(1-adamantanemethylaminocarbonyl)-indole]
 |  | 5.9 | 7.4 | O=C(NCC12CC3CC(CC(C3)C1)C2)c1cc2[nH]ccc2cc1C(=O)N[C@@H](Cc1ccccc1)C(=O)Nc1cccc(NS(=O)(=O)C(F)(F)F)c1 [Example 102, 5-(1S-(3-trifluoromethylsulphonylaminophenylaminocarbonyl)-2-phenylethylaminocarbonyl)-6-(1-adamantanemethylaminocarbonyl)-indole]
1260 | 1260 |  |  | O=C(NCC12CC3CC(CC(C3)C1)C2)c1cc2nc[nH]c2cc1C(=O)N[C@@H](Cc1ccccc1)C(=O)Nc1ccc(F)cc1 [Example 68, 5-(1S-(4-fluorophenylaminocarbonyl)-2-phenylethylaminocarbonyl)-6-(1-adamantanemethylaminocarbonyl)-benzimidazole]
251 | 39.8 |  |  | O=C(NCC12CC3CC(CC(C3)C1)C2)c1cc2cc[nH]c2cc1C(=O)N[C@@H](Cc1ccccc1)C(=O)Nc1cccc(-c2nn[nH]n2)c1 [Example 101, 6-(1S-(3-tetrazolylphenylaminocarbonyl)-2-phenylethylaminocarbonyl)-5-(1-adamantanemethylaminocarbonyl)-indole]
3160 | 1000 |  |  | CCCCc1nc2cc(C(=O)NCC34CC5CC(CC(C5)C3)C4)c(C(=O)N[C@@H](Cc3ccccc3)C(=O)Nc3cc(C(=O)O)cc(C(=O)O)c3)cc2[nH]1 [Example 114, 5-(1S-(3,5-dicarboxyphenylaminocarbonyl)-2-phenylethylaminocarbonyl)-6-(1-adamantanemethylaminocarbonyl)-2-n-butylbenzimidazole]
1260 | 63.1 |  |  | O=C(O)c1cc(NC(=O)[C@H](Cc2ccccc2)NC(=O)c2cc3[nH]c4ccccc4c3cc2C(=O)NCC23CC4CC(CC(C4)C2)C3)cc(C(=O)O)c1 [Example 52, 2-(1S-(3,5-dicarboxyphenylaminocarbonyl)-2-phenylethylaminocarbonyl)-3-(1-adamantanemethylaminocarbonyl)-carbazole]
 | 2000 |  |  | O=C(O[C@H]1CO[C@@H](c2ccccc2)OC1)c1cc(NC(=O)[C@H](Cc2ccccc2)NC(=O)c2cc3cc[nH]c3cc2C(=O)NCC23CC4CC(CC(C4)C2)C3)cc(C(=O)O[C@H]2CO[C@@H](c3ccccc3)OC2)c1 [Example 106, 5-(1S-(3,5-di-(cis-4-phenyl-3,5-dioxacyclohexaneoxycarbonyl)-phenylaminocarbonyl)-2-phenylethylaminocarbonyl)-6-(1-adamantanemethyl-aminocarbonyl)-indole]
 | 63.1 |  |  | Nc1ccc(C[C@H](NC(=O)c2cc3[nH]cnc3cc2C(=O)NCC23CC4CC(CC(C4)C2)C3)C(=O)Nc2cc(C(=O)O)cc(C(=O)O)c2)cc1 [Example 64, 5-(1S-(3,5-dicarboxyphenylaminocarbonyl)-2-(4-aminophenyl)-ethylaminocarbonyl)-6-(1-adamantanemethylaminocarbonyl)-benzimidazole]
 | 398 |  |  | O=C(O)c1cc(NC(=O)[C@H](Cc2ccccc2)NC(=O)c2cc3cc[nH]c3cc2C(=O)NCC2CCC(O)CC2)cc(C(=O)O)c1 (single isomer, unassigned) [Example 110, 5-(1S-(3,5-dicarboxyphenylaminocarbonyl)-2-phenylethylaminocarbonyl)-6-(4-hydroxycyclohexanemethylaminocarbonyl)-indole]
 |  | 5.1 |  | CC(C)(C)C(=O)OCOC(=O)c1cc(NC(=O)[C@H](Cc2ccccc2)NC(=O)c2cc3ccoc3cc2C(=O)NCC23CC4CC(CC(C4)C2)C3)cc(C(=O)OCOC(=O)C(C)(C)C)c1 [Example 121, 5-(1S-(3,5-di-t-butylcarbonyloxymethyloxycarbonylphenylaminocarbonyl)-2-phenylethylaminocarbonyl)-6-(1-adamantanemethylaminocarbonyl)-benzofuran]
15800 |  |  |  | COC(=O)c1cc(NC(=O)[C@H](Cc2ccccc2)NC(=O)c2cc3ccccc3cc2C(=O)NCC23CC4CC(CC(C4)C2)C3)cc(C(=O)OC)c1 [Example 17, 2-(1S-(3,5-dimethoxycarbonyl-phenylamino-carbonyl)-2-phenylethylaminocarbonyl)-3-(1-adamantanemethylaminocarbonyl)-naphthalene]
501 |  |  |  | COC(=O)c1cc(NC(=O)[C@H](Cc2ccccc2)NC(=O)c2cc3ccccc3cc2C(=O)NCC23CC4CC(CC(C4)C2)C3)cc(C(=O)O)c1 [Example 18, 2-(1S-(3-methoxycarbonyl-5-carboxyphenylaminocarbonyl)-2-phenylethylaminocarbonyl)-3-(1-adamantanemethylaminocarbonyl)-naphthalene]
 |  |  | 5.8 | 5-(1S-(3,5-diaminophenylaminocarbonyl)-2-phenylethylaminocarbonyl)-6-(1-adamantanemethyl-N-methylaminocarbonyl)-indole and regioisomer with substituents at positions 5 and 6 reversed [Example 43]
